“And” between values parts separate entries of the source, which are not always exact repeats. Identical values can stand only once. “Also recorded” adds a separate entry of the source. Counter-ions that a name gives are not always drawn. Like-named read-outs stand apart in the source and are kept apart here.
Columns and labels:
MBP-FALDR fusion protein = test: Inhibition of decanal reduction by MBP-FALDR in the presence of NADPH; type: biochemical, Marinobacter aquaeolei VT8; conditions: for Percent Activity: 100 mM MES pH 6.5, 200 μM NADPH, 250 μM decanal, 125 μg MBP-FALDR, activity remaining vs no inhibitor; for effect on decanal reduction in words: tested at 1.0 mM
Protocol: (§1) For Fatty Aldehyde Continuous Spectrophotometric Assay Development, all assays were performed in a sealed quartz cuvette with a 1 cm path length. The cuvette and solutions were first degassed with argon on a manifold to remove oxygen from the headspace and solutions. Substrates were initially disbursed into a buffer solution containing BSA at a concentration of 0.5 mg/mL by sonication for three ten second intervals using a microtip sonicator (Branson, Danbury, Conn.). The initial assay for pH optimization included a buffer of 100 mM MOPS, 100 mM MES, and 100 mM TAPS. For reduction assays, 75 μL of a 2 mg/mL NADPH stock was added to bring the initial concentration of NADPH in the cuvette to approximately 200 μM, and an approximate absorbance at 340 nm of 1.2 based on the reported extinction coefficient of 6220 M^−1 cm^−1 for NADPH. In all assays, the reaction was run for at least two minutes with the NADPH and substrate present, prior to the addition of any enzyme, to obtain a background oxidation rate of the NADPH.
Finally, the ability of decanol to inhibit reduction of decanal was also tested.
Referring again to Table 2, the inhibition assays were run in 100 mM MES buffer pH 6.5 with 200 μM NADPH, 250 μM decanal and 125 μg of MBP-FALDR fusion protein. All compounds were dissolved in buffer except dipyridyl, which was dissolved in dimethyl sulfoxide (DMSO).

[1] = system: MBP-FALDR enzyme (maltose binding protein-fatty aldehyde reductase fusion protein); test: Continuous spectrophotometric assay of fatty aldehyde reductase activity (NADPH oxidation at 340 nm), substrate comparison and kinetics; type: biochemical, Marinobacter aquaeolei VT8; conditions: for substrate activity in words: compared with decanal; for substrate activity in words / Relative Activity (Percent of Decanal): substrate 100 μg/mL; for Relative Activity (Percent of Decanal): 160 μg enzyme, decanal = 85 nmols/min/mg = 100; for Km: substrate of MBP-FALDR, NADPH, FIG. 2 substrate is cis-11-hexadecenal
Protocol: as §1, with “the NADPH. […] A linear fit of the data was then used to establish the rate, and the initial background rate was subtracted, to determine the rate associated with substrate reduction by the MBP-FALDR enzyme.” for “the NADPH.”
Having established that the MBP-FALDR would utilize NADPH as a substrate, it was possible to employ a continuous spectrophotometric assay to monitor substrate reduction rates based on the loss of absorbance at 340 nm when NADPH is oxidized to NADP^+. Using this assay, it was possible to establish the pH dependence of the reduction reaction. The rate of reaction was highest at pH 6.3, with a steep increase in activity going from 8.0 to 6.3. The rate at 6.3 was only slightly greater than at 6.5 ([…]). Several factors had to be considered in establishing the optimal pH of the assay. The first was the background oxidation of the NADPH without any MBP-FALDR enzyme present. […] The assays were run under an argon atmosphere to minimize oxidation of the NADPH by O2. A further consideration was the rapid degradation that occurs at the lowest pH values. […] So, for standard assays used here, a pH of 6.5 was selected, where the activity was minimally affected by slight variations in pH. The following discussion is useful in understanding some features and benefits of the various embodiments of the invention:
Utilizing the continuous assay to monitor MBP-FALDR activity, the dependence of rate on substrate concentration was determined for all of the commercially available substrates described above. Each assay was repeated multiple times to confirm the results from each single determination. The results obtained for cis-11-hexadecenal are shown in FIG. 2 and are representative of the results obtained for repeated determinations and for the other substrates. […] In addition, several factors could limit the observed activity. All of the substrates tested have limited solubility in aqueous solutions, and must first be suspended in solution via sonication. Even under these conditions, it is likely that the substrates exist inside micelles. The sonication process utilized here could result in the partial degradation of the substrate over time. Additionally, the suspension of the substrate in solution is only temporary, and the substrate slowly separates from aqueous solution. Due to these limitations, the measured activity is likely to be an underestimate of the actual activity. In the cell, the enzyme and substrate are likely associated with the hydrophobic membranes. […] It was also observed that the MBP-FALDR enzyme was unstable over time, even when stored at 4° C., losing as much as 50% of the activity over a period of a week. Though the purification is quite rapid, it is uncertain how much activity is lost during preparation. […]

[2] = molecular target: Marinobacter aquaeolei VT8 fatty aldehyde reductase (SEQ ID NO: 2) as maltose binding protein-fatty aldehyde reductase fusion protein (MBP-FALDR), SEQ ID NO: 3 (Marinobacter nauticus, UniProt A1U2T0); test: Inhibition of decanal reduction by MBP-FALDR; type: biochemical; conditions: for effect on activity (in words): 1.0 mM
Protocol: as §1, with “the NADPH. […] A linear fit of the data was then used to establish the rate, and the initial background rate was subtracted, to determine the rate associated with substrate reduction by the MBP-FALDR enzyme.” for “the NADPH.”
To probe the possible mechanism of the fatty aldehyde reducatase enzyme comprising the amino acid sequence of SEQ ID NO: 2, applicants again used the MBP-FALDR enzyme and some potential chemical inhibitors were tested for effects on the reduction of decanal by the MBP-FALDR enzyme in the presence of NADPH. In all cases, the compound was tested initially at concentrations of 1.0 mM, and if a significant inhibition was found, lower concentrations were also tested (Table 2). […] At higher concentrations, this was difficult to assess fully, as the dithionite interferes with the absorbance at 340 nm where activity is measured. […] This could be an indication of an active site residue or cofactor that is susceptible to reduction. […] This would indicate that if a transition metal is involved in the catalysis, it is not readily accessible to such chelators. Finally, the ability of decanol to inhibit reduction of decanal was also tested.
Certain embodiments of the invention may be characterized, in part, by the inhibition of the reduction of decanal by a fatty aldehyde reductase enzyme comprised by an amino acid sequence at least 90% identical to the amino acid sequence of SEQ ID NO: 2.
Referring again to Table 2, the inhibition assays were run in 100 mM MES buffer pH 6.5 with 200 μM NADPH, 250 μM decanal and 125 μg of MBP-FALDR fusion protein. All compounds were dissolved in buffer except dipyridyl, which was dissolved in dimethyl sulfoxide (DMSO). […] Activity is reported as the activity remaining in the presence of each compound as a percentage of the activity without any inhibitor present. *Not determined. Each compound was tested multiple times to confirm reproducibility. The remaining activity presented here is the result from a single set of data.

MBP-FALDR enzyme = test: Initial assessment of activity: overnight reaction with NADPH/NADH or NADP+, GC/GC-MS analysis; type: biochemical, Marinobacter aquaeolei VT8; conditions: with NADP+
Protocol: For initial assessment of the activity of the purified MBP-FALDR enzyme, 50 μg of purified MBP-FALDR protein was added to a reaction mixture containing 100 mM of Tris buffer at pH 7.9, 100 mM NaCl, 2.4 mM of either NADPH or NADH as a reductant, and decanal, oleic acid, and hexadecanol as possible substrates. The assays were run under an argon atmosphere in septa sealed vials overnight at room temperature with constant gentle mixing. The products of the reactions were then extracted from the buffer by adding an equal volume of hexane and organic layer components were analyzed by gas chromatography equipped with a flame ionization detector (Forte HT5 column (SGE Analytical Science, Austin, Tex.), 30 meter by 0.32 mm inner diameter with 0.5 μm film thickness, with argon as a carrier and a temperature ramp from 60° C. to 360° C. increasing at 10° C. per minute). Samples containing new peaks not present in a control sample were also run through a gas chromatograph equipped with a mass spectrometer (Shimadzu GC-2010 and GCMS-QP2010S) to assign the identity of the product.
Preliminary experiments were run with the MBP-FALDR enzyme to probe possible substrates by mixing either NADH or NADPH with an aldehyde (decanal), alcohol (hexadecanol) or fatty acid (oleic acid) and then looking for changes in concentration of one or more of the potential substrates by GC analysis. The assays were allowed to run overnight in a sealed vial under an atmosphere of argon to maintain the reduced forms of the nicotinamide coenzymes. […] This initial result pointed to the likelihood that the MBP-FALDR enzyme is an NADPH-dependent fatty aldehyde reductase, and further experiments were run to characterize this activity. […] The activity of medium chain alcohol dehydrogenases from a broad range of species show rates of oxidation of alcohols that are 10% of the rates of the reduction of the corresponding aldehyde, so it is possible that this rate is too low to detect.

[3] = reduction of decanal with NADPH

O=C1O[C@H]([C@@H](O)CO)C(O)=C1O [Ascorbic Acid]
Percent Activity (MBP-FALDR fusion protein; inhibitor 1.0 mM): 76%

O=Cc1ccccc1 [Benzaldehyde]
substrate activity in words [1]: no apparent activity
Relative Activity (Percent of Decanal) [1]: <1% of Decanal

O=C(O)CN(CCN(CC(=O)O)CC(=O)O)CC(=O)O [EDTA (Disodium Salt)]
effect on activity (in words) [2, 3]: little effect on the activity
inhibition at 1000 µM ([2]; pH 6.5, read-out: Percent Activity (activity remaining in presence of inhibitor)): 81%

CCCCCC=O [Hexanal]
substrate activity in words [1]: no apparent activity
Relative Activity (Percent of Decanal) [1]: <1% of Decanal

c1ccc(-c2ccccn2)nc1 [Dipyridyl]
Percent Activity (MBP-FALDR fusion protein; inhibitor 0.25 mM): 59%
Percent Activity (MBP-FALDR fusion protein; inhibitor 1.0 mM): 46%
effect on decanal reduction in words (MBP-FALDR fusion protein): moderate inhibition
effect on activity (in words) [2, 3]: only a moderate inhibition of activity

CCCCCCCCCCCC=O [Dodecanal]
substrate activity in words [1]: activity was lower
Relative Activity (Percent of Decanal) [1]: 55% of Decanal
Km ([1]; Michaelis-Menten fit): ~200 µM

O=S(O)S(=O)O [Dithionite]
Percent Activity (MBP-FALDR fusion protein; inhibitor 0.25 mM): 8%
Percent Activity (MBP-FALDR fusion protein; inhibitor 1.0 mM): 25%
effect on decanal reduction in words (MBP-FALDR fusion protein): significant decrease in activity
Percent Activity (activity remaining in presence of inhibitor) ([2]; 0.25 mM inhibitor, 100 mM MES pH 6.5, 200 μM NADPH, 250 μM decanal, 125 μg MBP-FALDR, % of activity without inhibitor): 8%
inhibition (in words) ([2]; 250 μM, reduction of decanal with NADPH, compared with higher concentration): the inhibition is more pronounced
Percent Activity (activity remaining in presence of inhibitor) ([2]; 1.0 mM inhibitor, 100 mM MES pH 6.5, 200 μM NADPH, 250 μM decanal, 125 μg MBP-FALDR, % of activity without inhibitor): 25%
effect on activity (in words) [2, 3]: significant decrease in activity

CCCC/C=C\CCCCCCCCCC=O [cis-11-hexadecenal]
Vmax (maximum velocity) ([1]; Michaelis-Menten fit, substrate cis-11-hexadecenal (FIG. 2)): 63 nmol/min/mg
substrate activity in words [1]: slightly lower than that obtained for decanal; also recorded: activity comparable to decanal
Relative Activity (Percent of Decanal) [1]: 87% of Decanal
Km ([1]; Michaelis-Menten fit): ~177 µM and 177 µM

CCCC=O [Butanal]
substrate activity in words [1]: no apparent activity
Relative Activity (Percent of Decanal) [1]: <1% of Decanal

OCCS [β-Mercaptoethanol]
inhibition at 1000 µM ([2]; 1.0 mM inhibitor, 100 mM MES pH 6.5, 200 μM NADPH, 250 μM decanal, 125 μg MBP-FALDR, % of activity without inhibitor, read-out: Percent Activity (activity remaining in presence of inhibitor)): 75%

CCCCCCCC=O [Octanal]
substrate activity in words [1]: approximately half the activity obtained for decanal
Relative Activity (Percent of Decanal) [1]: 52% of Decanal
Km ([1]; Michaelis-Menten fit): ~750 µM

O[C@H](CS)[C@H](O)CS (racemic) [Dithiothreitol]
Percent Activity (MBP-FALDR fusion protein; inhibitor 1.0 mM): 76%

CCCCCCCCCCCCCCCCO [hexadecanol]
reverse reaction: aldehyde production by GC (MBP-FALDR enzyme): no detectable levels

CCCCCCCCCCCCO [Dodecanol]
Percent Activity (MBP-FALDR fusion protein; inhibitor 0.25 mM): 55%
Percent Activity (MBP-FALDR fusion protein; inhibitor 1.0 mM): 54%

From patent publication US20100203614A1, “FATTY ALDEHYDE REDUCTASE” (Utah State University, priority 2009, published 2010)
